From patent US9532994B2, “Agents and methods for enhancing bone formation by oxysterols in combination with bone morphogenic proteins” (THE REGENTS OF THE UNIVERSITY OF CALIFORNIA, priority 2003, dated 2017)

Tests used:
[1] = tested on: M2-10B4 mouse marrow stromal cell line; assay: Alkaline phosphatase (ALP) activity assay in M2 cells; assay type: cell-based; settings: for induction of alkaline phosphatase activity: 10 μM oxysterols, osteogenic medium, 3 days (FIG. 3A); for dose- and time-dependence of induction of alkaline phosphatase activity: concentrations between 0.5-10 μM; for alkaline phosphatase activity: ligands used at 10 μM, ±SD, control vehicle C: 18±2, p<0.01 for C vs. all ligands
Description: Cells: M2-10B4 mouse marrow stromal cell line obtained from American Type Culture Collection (ATCC, Rockville, Md., U.S.A.) was derived from bone marrow stromal cells of a (C57BL/6J×C3H/HeJ) F1 mouse, and support human and murine myelopoiesis in long-term cultures (as per ATCC) and have the ability to differentiate into osteoblastic and adipocytic cells. Unless specified, these cells were cultured in RPMI 1640 containing 10% heat-inactivated FBS, and supplemented with 1 mM sodium pyruvate, 100 U/ml penicillin, and 100 […] (all from Irvine Scientific).
Alkaline phosphatase activity assay: Colorimetric alkaline phosphatase (ALP) activity assay on whole cell extracts was performed as previously described. […]
Test 2: M2 cells were grown in RPMI medium containing 10% fetal bovine serum (FBS). At confluence, the cells were treated in RPMI containing 5% FBS plus ascorbate at 50 μg/ml and β-glycerophosphate at 3 mM to induce osteoblastic differentiation. Adipogenic differentiation was induced by treating the cells in growth medium plus 10 ˜M troglitazone. A vehicle (C) or oxysterol treatment was applied to cells in a variety of doses (in μM): 20S-Hydroxycholesterol, 25-Hydroxycholesterol, 22R-Hydroxycholesterol; 22S-Hydroxycholesterol; 7-ketocholesterol. Cells were always treated at 90% confluence. After 4 days, alkaline phosphatase activity was determined in whole cell lysates and normalized to protein. Alternatively, MSC cultures were prepared and treated with oxysterols as described above. Cells were treated at 90% confluence with the combination of 22R-Hydroxycholesterol and 20S-Hydroxycholesterol, each at 5 μM, for 4 to 96 hours. The oxysterols where removed and fresh media without oxysterols was added for a total duration of 96 hours. Alkaline phosphatase activity was measured in whole cell extracts and normalized to protein.
M2 cells were treated at 90% confluence with vehicle (C), or oxysterols 20S-Hydroxycholesterol or 22S-Hydroxycholesterol at (0.5 μM) or (1 μM), in the absence or presence of cytochrome P450 inhibitor (SKF525A 10 μM (+)). MSC cultures were also treated at 90% confluence with vehicle (C), or 20S-Hydroxycholesterol (2 μM), in the absence or presence of cytochrome P450 […] (Benzylimidazole 50 μM) or SKF525A (10 μM). After 4 days, alkaline phosphatase activity was measured in whole cell extracts and normalized to protein. […]

[2] = tested on: osteocalcin mRNA in M2 cells; assay: Northern blotting for osteocalcin mRNA in M2 cells; assay type: cell-based, mouse; settings: 0.5-10 μM, as many as 14 days, data not shown
Description: The extent of gene induction was determined by densitometry.
After 4 and 8 days, total RNA from duplicate samples was isolated and analyzed for osteocalcin (Osc) and 28S rRNA expression by Northern blotting as described. FIG. 3E is a radiogram of Northern blotting for osteocalcin mRNA in M2 cells exposed to a control or combination of oxysterols for 4 or 8 days. FIG. 3F is a bar graph depicting the relative demsometric units of osteocalcin mRNA in M2 cells exposed to a control or combination of oxysterols for 4 or 8 days. Data from densitometric analysis of the Northern blot is shown in (F) as the average of duplicate samples, normalized to 28S rRNA.
Next, a combination of 22R and 20S oxysterols (RS, 2.5 μM each) were added in the presence or absence of SC as indicated. After 3 days, ALP activity was measured as described earlier. […] (B) M2 cells were treated as described in (A) and after 10 days matrix mineralization in cultures was quantified by a ^45Ca incorporation assay as described earlier. Results from a representative of three experiments are shown, reported as the mean±SD of quadruplicate determinations, normalized to protein concentration. (C) M2 cells were pretreated with 20 μM SC for 4 hours, followed by the addition of RS in the presence or absence of SC as described above. After 8 days, total RNA was isolated and analyzed for osteocalcin (Osc) and 18S rRNA expression by Northern blotting as previously described. Data from densitometric analysis of the Northern blot is shown in (D) as the average of duplicate samples, normalized to 18S rRNA. (E) M2 cells at confluence were pretreated for 2 hours with control vehicle (C), or PLA2 inhibitors ACA (25 μM) and MCOCF3 (MC, 20 μM), in osteogenic medium. Next, a combination of 22R and 20S oxysterols (RS, 2.5 μM) was added in the presence or absence of the inhibitors as indicated. After 3 days, ALP activity was measured as previously described. Data from a representative of three experiments are shown, reported as the mean±SD of quadruplicate determinations, normalized to protein concentration (p<0.01 for RS vs. RS+ACA and RS+MC). (F) M2 cells were treated as described in (E).

SMILES	induction of alkaline phosphatase activity [1]	dose- and time-dependence of induction of alkaline phosphatase activity [1]	alkaline phosphatase activity [1] [activity units/mg protein]	induction of osteocalcin gene expression, individual oxysterols [2]
CC(C)CC[C@@H](O)[C@@H](C)[C@H]1CC[C@H]2[C@@H]3CC=C4C[C@@H](O)CC[C@]4(C)[C@H]3CC[C@]12C [22R, 22(R)-hydroxycholesterol]	induced	dose- and time-dependent	45±5	unable to induce
CC(C)CC[C@H](O)[C@@H](C)[C@H]1CC[C@H]2[C@@H]3CC=C4C[C@@H](O)CC[C@]4(C)[C@H]3CC[C@]12C [22S, 22(S)-hydroxycholesterol]	induced	dose- and time-dependent		unable to induce
CC(C)CCC[C@](C)(O)[C@H]1CC[C@H]2[C@@H]3CC=C4C[C@@H](O)CC[C@]4(C)[C@H]3CC[C@@]21C [20S, 20(S)-hydroxycholesterol]	induced	dose- and time-dependent	140±12	unable to induce
